Assay results: PubChem BioAssay (NCI)
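Grown in 96-well plates, cells were treated for 48 hours with each compound at five concentrations. Insufficient inhibition: endpoint recorded as highest concentration tested. TGI is the concentration that stops growth completely.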

What was measured:
Experiment in all cases: NCI-60 cell line screen, 48 h
T-47D breast = tested on: T-47D breast
HCT-116 colon = tested on: HCT-116 colon
NCI-H23 lung = tested on: NCI-H23 lung
PC-3 prostate = tested on: PC-3 prostate
HT29 colon = tested on: HT29 colon
MCF7 breast = tested on: MCF7 breast
SF-539 CNS = tested on: SF-539 CNS
UACC-257 melanoma = tested on: UACC-257 melanoma
MALME-3M melanoma = tested on: MALME-3M melanoma
UO-31 renal = tested on: UO-31 renal
M14 melanoma = tested on: M14 melanoma
LOX IMVI melanoma = tested on: LOX IMVI melanoma
MDA-MB-231 breast = tested on: MDA-MB-231 breast
A549 NSCLC = tested on: A549 NSCLC
SK-OV-3 ovarian = tested on: SK-OV-3 ovarian
HL-60(TB) leukemia = tested on: HL-60(TB) leukemia
OVCAR-3 ovarian = tested on: OVCAR-3 ovarian
OVCAR-4 ovarian = tested on: OVCAR-4 ovarian
HOP-62 NSCLC = tested on: HOP-62 NSCLC
SW-620 colon = tested on: SW-620 colon
CAKI-1 renal = tested on: CAKI-1 renal
MDA-N = tested on: MDA-N
SF-268 CNS = tested on: SF-268 CNS
SNB-19 CNS = tested on: SNB-19 CNS
MOLT-4 leukemia = tested on: MOLT-4 leukemia
SK-MEL-28 melanoma = tested on: SK-MEL-28 melanoma
OVCAR-5 ovarian = tested on: OVCAR-5 ovarian
K-562 leukemia = tested on: K-562 leukemia
SF-295 CNS = tested on: SF-295 CNS
UACC-62 melanoma = tested on: UACC-62 melanoma
NCI-H460 lung = tested on: NCI-H460 lung
U251 CNS = tested on: U251 CNS
RXF 393 renal = tested on: RXF 393 renal
COLO 205 colon = tested on: COLO 205 colon
SNB-75 CNS = tested on: SNB-75 CNS
KM12 colon = tested on: KM12 colon
OVCAR-8 ovarian = tested on: OVCAR-8 ovarian
ACHN renal = tested on: ACHN renal
RPMI-8226 leukemia = tested on: RPMI-8226 leukemia
NCI/ADR-RES ovarian = tested on: NCI/ADR-RES ovarian
EKVX NSCLC = tested on: EKVX NSCLC
BT-549 breast = tested on: BT-549 breast
SN12C renal = tested on: SN12C renal
SR leukemia = tested on: SR leukemia
HS 578T breast = tested on: HS 578T breast
CCRF-CEM leukemia = tested on: CCRF-CEM leukemia
TK-10 renal = tested on: TK-10 renal
HCT-15 colon = tested on: HCT-15 colon
SK-MEL-5 melanoma = tested on: SK-MEL-5 melanoma
DU-145 prostate = tested on: DU-145 prostate
IGROV1 ovarian = tested on: IGROV1 ovarian
MDA-MB-435 = tested on: MDA-MB-435
786-0 renal = tested on: 786-0 renal
HOP-92 NSCLC = tested on: HOP-92 NSCLC
HCC-2998 colon = tested on: HCC-2998 colon
NCI-H522 lung = tested on: NCI-H522 lung
A498 renal = tested on: A498 renal
SK-MEL-2 melanoma = tested on: SK-MEL-2 melanoma
NCI-H226 lung = tested on: NCI-H226 lung

Work on CCSc1nc(N)c2c(-c3ccc(OC)c(OC)c3)c3c(nc2n1)CCCC3 yielded a TGI (T-47D breast) of over 100 µM, a TGI (HCT-116 colon) of over 100 µM and a TGI (NCI-H23 lung) of over 100 µM. The TGI (PC-3 prostate) was over 100 µM, the TGI (HT29 colon) was over 100 µM and the TGI (MCF7 breast) was over 100 µM. For the same molecule, the TGI (SF-539 CNS) was over 100 µM, the TGI (UACC-257 melanoma) was over 100 µM and the TGI (MALME-3M melanoma) was over 100 µM. The TGI (UO-31 renal) was over 100 µM, the TGI (M14 melanoma) was over 100 µM and the TGI (LOX IMVI melanoma) was over 100 µM. For the same molecule, the TGI (MDA-MB-231 breast) was over 100 µM, the TGI (A549 NSCLC) was over 100 µM and the TGI (SK-OV-3 ovarian) was over 100 µM. For the same molecule, the TGI (HL-60(TB) leukemia) was over 100 µM, the TGI (OVCAR-3 ovarian) was over 100 µM and the TGI (OVCAR-4 ovarian) was over 100 µM. It also gave a TGI (HOP-62 NSCLC) of over 100 µM, a TGI (SW-620 colon) of over 100 µM and a TGI (CAKI-1 renal) of over 100 µM. The TGI (MDA-N) was over 100 µM, the TGI (SF-268 CNS) was over 100 µM and the TGI (SNB-19 CNS) was over 100 µM. For the same molecule, the TGI (MOLT-4 leukemia) was over 100 µM, the TGI (SK-MEL-28 melanoma) was over 100 µM and the TGI (OVCAR-5 ovarian) was over 100 µM. It also gave a TGI (K-562 leukemia) of over 100 µM, a TGI (SF-295 CNS) of over 100 µM and a TGI (UACC-62 melanoma) of over 100 µM. It also gave a TGI (NCI-H460 lung) of over 100 µM, a TGI (U251 CNS) of over 100 µM and a TGI (RXF 393 renal) of over 100 µM. The TGI (COLO 205 colon) was over 100 µM, the TGI (SNB-75 CNS) was over 100 µM and the TGI (KM12 colon) was over 100 µM. The TGI (OVCAR-8 ovarian) was over 100 µM, the TGI (ACHN renal) was over 100 µM and the TGI (RPMI-8226 leukemia) was over 100 µM. It also gave a TGI (NCI/ADR-RES ovarian) of over 100 µM, a TGI (EKVX NSCLC) of over 100 µM and a TGI (BT-549 breast) of over 100 µM. It also gave a TGI (SN12C renal) of over 100 µM, a TGI (SR leukemia) of over 100 µM and a TGI (HS 578T breast) of over 100 µM. It also gave a TGI (CCRF-CEM leukemia) of over 100 µM, a TGI (TK-10 renal) of over 100 µM and a TGI (HCT-15 colon) of over 100 µM. It also gave a TGI (SK-MEL-5 melanoma) of over 100 µM, a TGI (DU-145 prostate) of over 100 µM and a TGI (IGROV1 ovarian) of over 100 µM. For the same molecule, the TGI (MDA-MB-435) was over 100 µM.

In the case of CC(C)(C)OC(=O)N(O)[C@@H]1C=C[C@H](n2cnc3c(N)ncnc32)C1, the TGI (T-47D breast) is reported as over 100 µM, the TGI (HCT-116 colon) is reported as over 100 µM and the TGI (NCI-H23 lung) is reported as over 100 µM. For the same molecule, the TGI (PC-3 prostate) was over 100 µM, the TGI (786-0 renal) was over 100 µM and the TGI (MCF7 breast) was over 100 µM. For the same molecule, the TGI (SF-539 CNS) was over 100 µM, the TGI (HOP-92 NSCLC) was over 100 µM and the TGI (HCC-2998 colon) was over 100 µM. It also gave a TGI (UACC-257 melanoma) of over 100 µM, a TGI (MALME-3M melanoma) of over 100 µM and a TGI (UO-31 renal) of over 100 µM. The TGI (M14 melanoma) was over 100 µM, the TGI (LOX IMVI melanoma) was over 100 µM and the TGI (MDA-MB-231 breast) was over 100 µM. For the same molecule, the TGI (A549 NSCLC) was over 100 µM, the TGI (SK-OV-3 ovarian) was over 100 µM and the TGI (NCI-H522 lung) was over 100 µM. The TGI (OVCAR-3 ovarian) was over 100 µM, the TGI (OVCAR-4 ovarian) was over 100 µM and the TGI (HOP-62 NSCLC) was over 100 µM. The TGI (SW-620 colon) was over 100 µM, the TGI (CAKI-1 renal) was over 100 µM and the TGI (MDA-N) was over 100 µM. For the same molecule, the TGI (SF-268 CNS) was over 100 µM, the TGI (SNB-19 CNS) was over 100 µM and the TGI (MOLT-4 leukemia) was over 100 µM. It also gave a TGI (SK-MEL-28 melanoma) of over 100 µM, a TGI (OVCAR-5 ovarian) of over 100 µM and a TGI (K-562 leukemia) of over 100 µM. It also gave a TGI (SF-295 CNS) of over 100 µM, a TGI (UACC-62 melanoma) of over 100 µM and a TGI (A498 renal) of over 100 µM. For the same molecule, the TGI (NCI-H460 lung) was over 100 µM, the TGI (U251 CNS) was over 100 µM and the TGI (RXF 393 renal) was over 100 µM. It also gave a TGI (COLO 205 colon) of over 100 µM, a TGI (SNB-75 CNS) of over 100 µM and a TGI (KM12 colon) of over 100 µM. The TGI (OVCAR-8 ovarian) was over 100 µM, the TGI (ACHN renal) was over 100 µM and the TGI (SK-MEL-2 melanoma) was over 100 µM. For the same molecule, the TGI (RPMI-8226 leukemia) was over 100 µM, the TGI (NCI/ADR-RES ovarian) was over 100 µM and the TGI (EKVX NSCLC) was over 100 µM. For the same molecule, the TGI (BT-549 breast) was over 100 µM, the TGI (SN12C renal) was over 100 µM and the TGI (SR leukemia) was over 100 µM. For the same molecule, the TGI (NCI-H226 lung) was 96.9 µM, the TGI (HS 578T breast) was over 100 µM and the TGI (CCRF-CEM leukemia) was over 100 µM. The TGI (TK-10 renal) was over 100 µM, the TGI (HCT-15 colon) was over 100 µM and the TGI (SK-MEL-5 melanoma) was over 100 µM. The TGI (DU-145 prostate) was over 100 µM, the TGI (IGROV1 ovarian) was over 100 µM and the TGI (MDA-MB-435) was over 100 µM.
